According to patent US20020032177A1, “Use of D-chiro-inositol in the treatment of conditions associated with hypothalamic gene expression” (Insmed Pharmaceuticals, Inc., priority 2000, published 2002):
Where two headings read alike, the source gives them in different places.

Assays:
[1] = women with PCOS; cited from earlier work
[2] = obese rodents and humans; cited from earlier work
NPY mRNA = NPY mRNA levels in diet-induced obese mice; type: in vivo
Text: (§1) A high calorie diet (compositionally equivalent to the typical American diet) will induce obesity and diabetes in some mouse strains (e.g., C57BL/6J) but not others (e.g., A/J). […] These changes in hypothalamic gene expression are ultimately regulated by insulin, although part of the effect may be mediated indirectly by the effect of insulin on leptin synthesis in fat, which then feeds back to hypothalamus to enhance the direct effect of insulin on the hypothalamus. By enhancing the rate of translation and secretion of leptin this hypothalamic response is blocked or attenuated.
(§2) FIG. 1 and FIG. 2 depicts the results of studies in the diet induced mice on NPY and AGRP mRNA levels. DCI leads to lower NPY and AGRP mRNA.

AGRP mRNA = AGRP mRNA levels in diet-induced obese mice; type: in vivo; conditions: FIG. 2
Text: as §1, §2

leptin mRNA [3] = test: Leptin mRNA in mice after DCI administration; type: in vivo; conditions: FIG. 3
Text: (§3) FIG. 3 and FIG. 4 depict, respectively, the effect of DCI administration on leptin mRNA and plasma leptin in mice. […] Thus, DCI enhances the rate of translation and secretion of leptin.

plasma leptin = test: Plasma leptin in mice after DCI administration; type: in vivo; conditions: FIG. 4
Text: as §3

[4] = Adiposity of mice after DCI administration; type: in vivo; conditions: fed and 48-hour fasted
Text: as §3

[5] = lean (wild-type) mice, daily injections; cited from earlier work
[6] = ob/ob mice, daily injections; cited from earlier work
leptin mRNA [7] = conditions: elevation of leptin by injection; cited from earlier work

For `CN(C)C(=N)N=C(N)N` [Metformin], the fertility [1] is given as “partially restores” and the food intake [2] is given as “decreases”.

With `OC1C(O)C(O)C(O)C(O)C1O` [DCI, D-chiro-inositol] the “NPY mRNA” value (NPY mRNA; diet induced mice, FIG. 1) was “lower”, the “effect of fasting on NPY and AGRP mRNA” value (NPY mRNA; fasted state, diet-induced obese mice) was “blocks or attenuates the effect of fasting” and the “AGRP mRNA” value (AGRP mRNA) was “lower”. The “leptin mRNA” value (leptin mRNA [3]) was “decrease”, the “increase of plasma leptin” value (plasma leptin; 48-hour fasted mice) was “over 5 fold” and the “increase of plasma leptin” value (plasma leptin; fed mice) was “over 2 fold”. The adiposity [4] was “without increasing adiposity”.

B1: leptin: product of the obese (ob) gene, secreted by adipose cells; given as daily injections of recombinant protein (protein, UniProt P41160 22-167, looked up)
Leptin: VPIQKVQDDTKTLIKTIVTRINDISHTQSVSAKQRVTGLDFIPGLHPILSLSKMDQTLAVYQQVLTSLPSQNVLQIANDLENLRDLLHLLAFSKSCSLPQTSGLQKPESLDGVLEASLYSTEVVALSRLQGSLQDILQQLDVSPEC
In the case of B1, the “food intake and body weight” value [5] is listed as “modest decreases”, the “body weight and fat” value [6] is listed as “reduction” and the food intake [6] is listed as “markedly inhibited”. For the same molecule, the “leptin mRNA” value (leptin mRNA [7]) was “pronounced decreases”.
